This assay deals with T1, human APJ receptor (Homo sapiens, UniProt P35414).
T1 construct: expressed in transfected cells
T1 sequence (P35414 1-380): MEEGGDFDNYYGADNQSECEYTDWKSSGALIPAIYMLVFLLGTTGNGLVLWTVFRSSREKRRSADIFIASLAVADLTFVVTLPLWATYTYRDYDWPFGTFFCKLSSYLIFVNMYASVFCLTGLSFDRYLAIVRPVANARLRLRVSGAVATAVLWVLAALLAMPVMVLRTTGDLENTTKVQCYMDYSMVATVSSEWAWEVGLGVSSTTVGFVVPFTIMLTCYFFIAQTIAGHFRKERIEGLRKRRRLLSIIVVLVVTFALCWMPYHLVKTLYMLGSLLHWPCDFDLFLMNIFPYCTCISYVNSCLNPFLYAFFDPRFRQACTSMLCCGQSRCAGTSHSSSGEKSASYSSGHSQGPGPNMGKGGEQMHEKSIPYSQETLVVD
Put plainly: Intracellular cAMP accumulation assay (APJ hcAMP, HTRF). In kind it is cell-based. In short, it runs like this:
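Inhibition of 2 μM forskolin-driven cAMP ([…] present) measured by HTRF in 5,000 HEK293 cells/well stably expressing human APJ, 30 min, room temperature. EC50 came from a variable-slope sigmoidal fit; Ymax was relative to (Pyr1)apelin-13 set at 100%.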

Setting [1] is: Table 1, HEK293 cells stably expressing human APJ receptor, inhibition of forskolin-mediated cAMP production, read-out: APJ hcAMP EC50.
Where [2] appears, read: Table 3, HEK293 cells stably expressing human APJ receptor, read-out: APJ cAMP Human EC50.

Like-named read-outs stand apart in the source and are kept apart here.

For `COc1cc2[nH]c(-c3cccc(Cl)c3-c3ccc(C(=O)NCc4ccccc4)cc3C(=O)O)nc2cc1F` [Example 119, (S)-4-(benzylcarbamoyl)-2′-chloro-6′-(5-fluoro-6-methoxy-1H-1,3-benzodiazol-2-yl)-[1,1′-biphenyl]-2-carboxylic acid], the concentration giving a half-maximal response (EC50) under setting [1] is 0.01 to 0.1 µM and the EC50 under setting [2] is 0.01 to 0.1 µM.
Take `COc1cc2[nH]c(-c3cccc(Cl)c3-c3ccc(C(=O)NCc4ccc(Cl)cc4)cc3C(=O)O)nc2cc1F` [Example 120, (S)-2′-chloro-4-{[(4-chlorophenyl)methyl]carbamoyl}-6′-(5-fluoro-6-methoxy-1H-1,3-benzodiazol-2-yl)-[1,1′-biphenyl]-2-carboxylic acid]: the EC50 lay in the range of 0.01 to 0.1 µM under setting [1] and 0.01 to 0.1 µM under setting [2].
As for `COc1cc2[nH]c(-c3cccc(Cl)c3-c3ccc(C(=O)NCC(C)C)cc3C(=O)O)nc2cc1F` [Example 121, (S)-2′-chloro-6′-(5-fluoro-6-methoxy-1H-1,3-benzodiazol-2-yl)-4-[(2-methylpropyl)carbamoyl [1,1′-biphenyl]-2-carboxylic acid], the EC50 under setting [1] is 0.01 to 0.1 µM and the EC50 under setting [2] is 0.01 to 0.1 µM.
Turning to `COc1cc2[nH]c(-c3cccc(Cl)c3-c3ccc(C(=O)NCCCN(C)C)cc3C(=O)O)nc2cc1F` [Example 122, (S)-2′-chloro-4-{[3-(dimethylamino)propyl]carbamoyl}-6′-(5-fluoro-6-methoxy-1H-1,3-benzodiazol-2-yl)-[1,1′-biphenyl]-2-carboxylic acid], the EC50 reads like this: under setting [1], 0.01 to 0.1 µM; under setting [2], 0.01 to 0.1 µM.
In the case of `COc1cc2[nH]c(-c3cccc(Cl)c3-c3ccc(C(=O)N4CCC(O)CC4)cc3C(=O)O)nc2cc1F` [Example 123, (S)-2′-chloro-6′-(5-fluoro-6-methoxy-1H-1,3-benzodiazol-2-yl)-4-(4-hydroxypiperidine-1-carbonyl)-[1,1′-biphenyl]-2-carboxylic acid], the EC50 lay in the range of 0.01 to 0.1 µM under setting [1] and 0.01 to 0.1 µM under setting [2].
For `COc1cc2[nH]c(-c3cccc(Cl)c3-c3ccc(C(=O)N4CCCC4)cc3C(=O)O)nc2cc1F` [Example 124, (S)-2′-chloro-6′-(5-fluoro-6-methoxy-2-yl)-4-(pyrrolidine-1-carbonyl)-[1,1′-biphenyl]-2-carboxylic acid], the EC50 is, setting by setting: under setting [1], 0.01 to 0.1 µM; under setting [2], 0.01 to 0.1 µM.
Consider `COc1ccc(NC(=O)c2ccc(-c3c(Cl)cccc3-c3nc4cc(F)c(OC)cc4[nH]3)c(C(=O)O)c2)cc1` [Example 125, (S)-2′-chloro-6′-(5-fluoro-6-methoxy-1H-1,3-benzodiazol-2-yl)-4-[(4-methoxyphenyl)carbamoyl]-[1,1′-biphenyl]-2-carboxylic acid], for which the EC50 is 0.01 to 0.1 µM under setting [1] and 0.01 to 0.1 µM under setting [2].
As to `COc1cc2[nH]c(-c3cccc(Cl)c3-c3ccc(C(=O)N4CCC(Cc5ccccc5)CC4)cc3C(=O)O)nc2cc1F` [Example 126, (S)-4-(4-benzylpiperidine-1-carbonyl)-2′-chloro-6′-(5-fluoro-6-methoxy-1H-1,3-benzodiazol-2-yl)-[1,1′-biphenyl]-2-carboxylic acid], the EC50 under setting [2] lay in the range of 0.101 to 0.5 µM.
In the case of `CCC[C@@H](NC(=O)c1ccc(-c2c(Cl)cccc2-c2nc3cc(OC)c(F)cc3[nH]2)c(C(=O)NOC)c1)c1ccccc1` [Example 127, 2′-chloro-6′-(6-fluoro-5-methoxy-1H-1,3-benzodiazol-2-yl)-N2-methoxy-N4-[(1R)-1-phenylbutyl]-[1,1′-biphenyl]-2,4-dicarboxamide], the EC50 under setting [2] is < 0.01 µM.
With `CCC[C@@H](NC(=O)c1ccc(-c2c(Cl)cccc2-c2nc3ccccc3[nH]2)c(-c2n[nH]c(=O)o2)c1)c1ccccc1` [Example 129, 2′-(1H-1,3-benzodiazol-2-yl)-6′-chloro-2-(5-oxo-4,5-dihydro-1,3,4-oxadiazol-2-yl)-N-[(1R)-1-phenylbutyl]-[1,1′-biphenyl]-4-carboxamide], under setting [2], the EC50 lay within 0.01 to 0.1 µM.
Turning to `CCC[C@@H](NC(=O)c1ccc(-c2c(Cl)cccc2-c2nc3cc(OC)c(F)cc3[nH]2)c(-c2n[nH]c(=O)o2)c1)c1ccccc1` [Example 130, 2′-chloro-6′-(6-fluoro-5-methoxy-1H-1,3-benzodiazol-2-yl)-2-(5-oxo-4,5-dihydro-1,3,4-oxadiazol-2-yl)-N-[(1R)-1-phenylbutyl]-[1,1′-biphenyl]-4-carboxamide], the EC50 under setting [2] is < 0.01 µM.
As for `CCC[C@@H](NC(=O)c1ccc(-c2c(C)cccc2-c2nc3ccccc3n2C)c(C(=O)O)c1)c1ccccc1` [Example 137, 2′-methyl-6′-(1-methyl-1H-1,3-benzodiazol-2-yl)-4-{[(1R)-1-phenylbutyl]carbamoyl}-[1,1′-biphenyl]-2-carboxylic acid], the EC50 fell in the range of 0.01 to 0.1 µM under setting [1] and 0.01 to 0.1 µM under setting [2].
With `COC[C@@H](NC(=O)c1ccc(-c2cc(Cl)ccc2-c2nc3ccccc3n2C)c(C(=O)O)c1)c1ccccc1` [Example 138, 5′-chloro-4-{[(1S)-2-methoxy-1-phenylethyl]carbamoyl}-2′-(1-methyl-1H-1,3-benzodiazol-2-yl)-[1,1′-biphenyl]-2-carboxylic acid], the EC50 reads like this: under setting [1], 0.101 to 0.5 µM; under setting [2], 0.101 to 0.5 µM.
Turning to `CCC[C@@H](NC(=O)c1ccc(-c2c(C)cccc2-c2nc3ccccc3[nH]2)c(C(=O)O)c1)c1ccccc1` [Example 139, 2′-(1H-1,3-benzodiazol-2-yl)-6′-methyl-4-{[(1R)-1-phenylbutyl]carbamoyl}-[1,1′-biphenyl]-2-carboxylic acid], the EC50 under setting [2] is < 0.01 µM.
Still for that read-out and setting: under `CCC[C@@H](NC(=O)c1ccc(-c2c(F)cccc2-c2nc3ccccc3[nH]2)c(C(=O)O)c1)c1ccccc1` [Example 140, 2′-(1H-1,3-benzodiazol-2-yl)-6′-fluoro-4-{[(1R)-1-phenylbutyl]carbamoyl}-[1,1′-biphenyl]-2-carboxylic acid] stands < 0.01 µM.
For the molecule `CCC[C@@H](NC(=O)c1ccc(-c2c(C)cccc2-c2nc3cc(OC)ccc3[nH]2)c(C(=O)O)c1)c1ccccc1` [Example 142, 2′-(5-methoxy-1H-1,3-benzodiazol-2-yl)-6′-methyl-4-{[(1R)-1-phenylbutyl]carbamoyl}-[1,1′-biphenyl]-2-carboxylic acid], the EC50 by setting is: under setting [1], < 0.01 µM; under setting [2], < 0.01 µM.
`CCC[C@@H](NC(=O)c1ccc(-c2c(F)cccc2-c2nc3cc(OC)ccc3[nH]2)c(C(=O)O)c1)c1ccccc1` [Example 143, 2′-fluoro-6′-(5-methoxy-1H-1,3-benzodiazol-2-yl)-4-{[(1R)-1-phenylbutyl]carbamoyl}-[1,1′-biphenyl]-2-carboxylic acid]: under setting [2], the EC50 was < 0.01 µM.
Turning to `CCC[C@@H](NC(=O)c1ccc(-c2c(C)cccc2-c2nc3cc(C(C)(C)C)ccc3[nH]2)c(C(=O)O)c1)c1ccccc1` [Example 144, 2′-(5-tert-butyl-1H-1,3-benzodiazol-2-yl)-6′-methyl-4-{[(1R)-1-phenylbutyl]carbamoyl}-[1,1′-biphenyl]-2-carboxylic acid], the EC50 under setting [1] was < 0.01 µM and the EC50 under setting [2] was < 0.01 µM.
As for `CCC[C@@H](NC(=O)c1ccc(-c2c(F)cccc2-c2nc3cc(C(C)(C)C)ccc3[nH]2)c(C(=O)O)c1)c1ccccc1` [Example 145, 2′-(5-tert-butyl-1H-1,3-benzodiazol-2-yl)-6′-fluoro-4-{[(1R)-1-phenylbutyl]carbamoyl}-[1,1′-biphenyl]-2-carboxylic acid], the EC50 was < 0.01 µM under setting [1] and < 0.01 µM under setting [2].
As to `CCC[C@@H](NC(=O)c1ccc(-c2c(C)cccc2-c2nc3c(O)cccc3[nH]2)c(C(=O)O)c1)c1ccccc1` [Example 148, 2′-(4-hydroxy-1H-1,3-benzodiazol-2-yl)-6′-methyl-4-{[(1R)-1-phenylbutyl]carbamoyl}-[1,1′-biphenyl]-2-carboxylic acid], the EC50 is < 0.01 µM under setting [1] and < 0.01 µM under setting [2].
As for `CCC[C@@H](NC(=O)c1ccc(-c2c(C)cccc2-c2nc3cnccc3[nH]2)c(C(=O)O)c1)c1ccccc1` [Example 149, 2′-{1H-imidazo[4,5-c]pyridin-2-yl}-6′-methyl-4-{[(1R)-1-phenylbutyl]carbamoyl}-[1,1′-biphenyl]-2-carboxylic acid], under setting [2], the EC50 was < 0.01 µM.
In the case of `CCCC(CCC)NC(=O)c1ccc(-c2c(Cl)cccc2-c2nc3ccccc3[nH]2)c(C(=O)O)c1` [Example 153, (S)-2′-(1H-1,3-benzodiazol-2-yl)-6′-chloro-4-[(heptan-4-yl)carbamoyl]-[1,1′-biphenyl]-2-carboxylic acid], the EC50 under setting [2] lay in the range of 0.01 to 0.1 µM.
For the molecule `CCOCC(NC(=O)c1ccc(-c2c(Cl)cccc2-c2nc3ccccc3[nH]2)c(C(=O)O)c1)c1ccccc1` [Example 157, (S)-2′-(1H-1,3-benzodiazol-2-yl)-6′-chloro-4-{[(1S)-2-ethoxy-1-phenylethyl]carbamoyl}-[1,1′-biphenyl]-2-carboxylic acid], the EC50 by setting is: under setting [1], < 0.01 µM; under setting [2], < 0.01 µM.
`CCCC(NC(=O)c1ccc(-c2c(Cl)cccc2-c2nc3ccccc3[nH]2)c(C(=O)O)c1)c1cccc(Cl)c1` [Example 167, (S)-2′-(1H-1,3-benzodiazol-2-yl)-6′-chloro-4-{[1-(3-chlorophenyl)butyl]carbamoyl}-[1,1′-biphenyl]-2-carboxylic acid]: the EC50 is < 0.01 µM under setting [1] and < 0.01 µM (human APJ, cAMP, potency range class, read-out: APJ cAMP Human EC50).

Source of the values: patent publication US11498903B2 (BRISTOL-MYERS SQUIBB COMPANY, priority 2017, dated 2022).
